ChEMBL document CHEMBL1149379, “Pyrrolo(iso)quinoline derivatives as 5-HT(2C) receptor agonists” (Bioorg Med Chem Lett, 2006)
pEC50, pKi: −log10 of the molar value. Active and inactive are the calls of the source. The calls are words filed in the database; no cut-off is given here.

Experiments:
[1] = molecular target: T1, 5-hydroxytryptamine receptor 2A (Homo sapiens, UniProt P28223); assay: Binding to human 5HT2A receptor expressed in CHO cells relative to 5HT; format: cell-based
[2] = molecular target: T2, 5-hydroxytryptamine receptor 2C (Homo sapiens) (UniProt P28335); assay: Binding to human 5HT2C receptor expressed in CHO cells relative to 5HT; format: cell-based
T2 sequence (whole entry): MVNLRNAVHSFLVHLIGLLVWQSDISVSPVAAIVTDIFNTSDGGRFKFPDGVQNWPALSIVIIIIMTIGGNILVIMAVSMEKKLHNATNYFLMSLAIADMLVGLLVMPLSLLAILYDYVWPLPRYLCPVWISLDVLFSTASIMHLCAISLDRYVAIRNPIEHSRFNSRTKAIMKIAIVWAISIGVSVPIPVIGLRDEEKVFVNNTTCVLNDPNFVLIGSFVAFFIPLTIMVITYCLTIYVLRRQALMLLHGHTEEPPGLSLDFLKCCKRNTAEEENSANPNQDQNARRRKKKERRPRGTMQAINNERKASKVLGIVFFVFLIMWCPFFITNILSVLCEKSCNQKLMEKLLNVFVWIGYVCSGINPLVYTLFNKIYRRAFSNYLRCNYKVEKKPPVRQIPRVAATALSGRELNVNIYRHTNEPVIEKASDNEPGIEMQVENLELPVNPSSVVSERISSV

[3] = molecular target: T3, 5-hydroxytryptamine receptor 2C (Homo sapiens, UniProt P28335); assay: Displacement of [3H]5-HT from human 5HT2C
T3 sequence (P28335 whole entry): T2 sequence (whole entry)

[4] = molecular target: T3, 5-hydroxytryptamine receptor 2C; assay: Binding to human 5HT2C receptor expressed in CHO cells; format: cell-based
[5] = molecular target: T4, 5-hydroxytryptamine receptor 2B (Homo sapiens, UniProt P41595); assay: Binding to human 5HT2B receptor expressed in CHO cells relative to 5HT; format: cell-based
[6] = molecular target: T1, 5-hydroxytryptamine receptor 2A; assay: Binding to human 5HT2A receptor expressed in CHO cells; format: cell-based
[7] = molecular target: T4, 5-hydroxytryptamine receptor 2B; assay: Binding to human 5HT2B receptor expressed in CHO cells; format: cell-based
[8] = molecular target: T4, 5-hydroxytryptamine receptor 2B; assay: Displacement of [3H]5-HT from human 5HT2B
[9] = molecular target: T1, 5-hydroxytryptamine receptor 2A; assay: Displacement of [125I]DOI from human 5HT2A
[10] = tested on: Rattus norvegicus; assay: Reduction in food intake in food-deprived rats after 4 hrs of administration of 3 mg/kg; format: functional, organism-based; design: dose 3 mg/kg
[11] = species on record: Rattus norvegicus; assay: Blocking of anorectic effect in rats pre-treated with SB-242084; format: functional, organism-based

T1 sequence (P28223 whole entry): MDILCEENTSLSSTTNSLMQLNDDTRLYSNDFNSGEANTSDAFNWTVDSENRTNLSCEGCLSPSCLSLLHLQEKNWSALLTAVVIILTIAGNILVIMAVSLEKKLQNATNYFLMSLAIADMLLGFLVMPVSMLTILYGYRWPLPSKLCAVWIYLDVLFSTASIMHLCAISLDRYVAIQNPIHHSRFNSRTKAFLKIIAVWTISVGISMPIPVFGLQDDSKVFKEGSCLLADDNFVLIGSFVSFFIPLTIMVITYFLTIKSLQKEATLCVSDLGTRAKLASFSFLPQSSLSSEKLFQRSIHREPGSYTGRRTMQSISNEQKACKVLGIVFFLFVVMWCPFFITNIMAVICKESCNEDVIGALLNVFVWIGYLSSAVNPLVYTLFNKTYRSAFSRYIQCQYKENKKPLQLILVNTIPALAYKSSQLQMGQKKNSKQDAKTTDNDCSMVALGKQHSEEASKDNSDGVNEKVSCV
T4 sequence (P41595 whole entry): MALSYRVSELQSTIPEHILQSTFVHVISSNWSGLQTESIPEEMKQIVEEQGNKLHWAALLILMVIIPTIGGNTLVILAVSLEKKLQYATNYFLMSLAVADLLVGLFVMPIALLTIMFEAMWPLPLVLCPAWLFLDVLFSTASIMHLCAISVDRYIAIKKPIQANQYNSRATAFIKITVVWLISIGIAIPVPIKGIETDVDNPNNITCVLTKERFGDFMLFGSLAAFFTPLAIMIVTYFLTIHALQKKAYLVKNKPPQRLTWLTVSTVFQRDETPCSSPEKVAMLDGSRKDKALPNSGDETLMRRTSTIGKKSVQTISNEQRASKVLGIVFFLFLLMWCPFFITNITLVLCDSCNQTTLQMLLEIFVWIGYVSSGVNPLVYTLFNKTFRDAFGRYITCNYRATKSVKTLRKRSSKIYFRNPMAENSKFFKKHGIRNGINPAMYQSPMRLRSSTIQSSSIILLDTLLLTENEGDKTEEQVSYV

SMILES | Efficacy [1] [%] | Efficacy [2] [%] | pKi [3] | pEC50 [4] | Efficacy [5] [%] | pEC50 [6] | pEC50 [7] | pKi [8] | pKi [9] | Activity [10] | Activity [11]
C[C@H](N)Cn1ccc2ccc3ccncc3c21 | 67 | 98 | 7.43 | 7.14 | 67 | 6.33 | 7.21 | 6.68 | 6.64 |  | 
Cc1ccccc1CN[C@@H](C)Cn1ccc2ccc3ncccc3c21 | 49 | 87 | 6.77 | 6.66 | 64 | < 6.00 | 6.89 | 6.13 | 5.77 |  | 
C[C@H](N)Cn1ccc2cc(Cl)c3ncccc3c21 | 85 | 101 | 8.62 | 8.16 | 61 | 7.44 | 8.68 | 7.74 | 7.54 |  | 
COc1ccccc1CN[C@@H](C)Cn1ccc2ccc3ncccc3c21 | 24 | 77 | 6.77 | 6.26 | 41 | < 6.00 | 6.34 | 6.05 | 5.80 |  | 
C[C@@H](Cn1ccc2ccc3ncccc3c21)NCC1CCCCC1 | 32 | 88 | 7.11 | 6.46 | 67 | < 6.00 | 6.89 | 6.20 | 6.03 |  | 
C[C@@H](Cn1ccc2ccc3ncccc3c21)NCc1ccc2c(c1)OCO2 | 69 | 98 | 7.80 | 7.38 | 71 | 6.44 | 7.70 | 6.86 | 6.40 |  | 
CCN[C@@H](C)Cc1cccc(C(F)(F)F)c1 |  |  |  |  |  |  |  |  |  | Active | 
C[C@H](N)Cn1ccc2cc(F)c(Cl)cc21 | 72 | 93 |  |  | 71 |  |  |  |  |  | 
C[C@@H](Cn1ccc2ccc3ncccc3c21)NCc1ccc2ccccc2c1 | 56 | 99 | 7.80 | 7.28 | 76 | 6.65 | 7.57 | 6.87 | 6.74 |  | 
Clc1cccc(N2CCNCC2)c1 | 41 | 83 |  |  | 33 |  |  |  |  |  | 
NCCc1c[nH]c2ccc(O)cc12 | 98 |  |  |  |  |  |  |  |  |  | 
C[C@H](N)Cn1ccc2ccc3cnccc3c21 | 63 | 93 | 7.14 | 6.53 | 70 | < 6.00 | 6.82 | 6.11 | 5.98 |  | 
C=CCN[C@@H](C)Cn1ccc2ccc3ncccc3c21 | 54 | 92 | 7.07 | 6.59 | 70 | 6.11 | 7.04 | 6.34 | 5.94 |  | 
C[C@H](N)Cn1ccc2ccc3cccnc3c21 | 41 | 39 | 7.57 | 7.01 | 60 | 6.35 | 7.35 | 6.94 | 6.64 |  | 
C[C@@H](Cn1ccc2ccc3ncccc3c21)NCc1ccccc1 | 39 | 86 | 7.11 | 6.70 | 70 | < 6.00 | 7.01 | 6.29 | 6.07 |  | 
C[C@H](N)Cn1ccc2ccc3ncccc3c21 | 88 | 99 | 8.80 | 8.54 | 65 | 7.49 | 8.96 |  | 7.51 | Active | Dose-dependent effect
C[C@@H](Cn1ccc2ccc3ncccc3c21)NCc1ccccc1Cl | 58 | 95 | 7.41 | 7.13 | 72 | 6.20 | 7.36 | 6.42 | 6.17 |  | 
